Data taken from patent publication US20250176598A1, “AMIDE COMPOUNDS AND THEIR USE AS FLAVOR MODIFIERS” (Firmenich Incorporated, priority 2022, published 2025).

Target: T1, T1R umami taste receptor (Homo sapiens, UniProt Q7RTX0+Q7RTX1)
T1 sequence (Q7RTX1 21-841): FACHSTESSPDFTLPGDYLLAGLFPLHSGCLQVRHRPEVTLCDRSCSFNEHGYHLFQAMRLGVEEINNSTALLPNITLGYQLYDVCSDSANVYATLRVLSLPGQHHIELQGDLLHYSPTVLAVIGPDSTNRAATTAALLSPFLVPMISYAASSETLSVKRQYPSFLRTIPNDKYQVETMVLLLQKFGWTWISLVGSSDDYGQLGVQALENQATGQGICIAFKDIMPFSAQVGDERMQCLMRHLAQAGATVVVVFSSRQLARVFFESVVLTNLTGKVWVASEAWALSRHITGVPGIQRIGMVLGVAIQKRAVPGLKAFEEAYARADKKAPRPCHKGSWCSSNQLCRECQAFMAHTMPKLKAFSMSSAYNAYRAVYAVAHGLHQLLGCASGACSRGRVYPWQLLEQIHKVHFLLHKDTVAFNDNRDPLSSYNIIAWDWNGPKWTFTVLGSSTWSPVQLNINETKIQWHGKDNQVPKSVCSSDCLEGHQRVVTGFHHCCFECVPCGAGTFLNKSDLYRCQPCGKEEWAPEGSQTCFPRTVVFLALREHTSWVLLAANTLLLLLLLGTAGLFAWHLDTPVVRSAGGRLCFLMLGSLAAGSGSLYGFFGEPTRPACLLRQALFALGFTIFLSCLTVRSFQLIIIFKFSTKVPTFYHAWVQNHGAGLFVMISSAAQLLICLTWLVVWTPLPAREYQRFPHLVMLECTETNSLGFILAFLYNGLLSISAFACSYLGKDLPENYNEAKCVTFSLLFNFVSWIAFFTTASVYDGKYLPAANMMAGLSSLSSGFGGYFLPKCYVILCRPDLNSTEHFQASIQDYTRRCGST
T1 sequence (Q7RTX0 21-852): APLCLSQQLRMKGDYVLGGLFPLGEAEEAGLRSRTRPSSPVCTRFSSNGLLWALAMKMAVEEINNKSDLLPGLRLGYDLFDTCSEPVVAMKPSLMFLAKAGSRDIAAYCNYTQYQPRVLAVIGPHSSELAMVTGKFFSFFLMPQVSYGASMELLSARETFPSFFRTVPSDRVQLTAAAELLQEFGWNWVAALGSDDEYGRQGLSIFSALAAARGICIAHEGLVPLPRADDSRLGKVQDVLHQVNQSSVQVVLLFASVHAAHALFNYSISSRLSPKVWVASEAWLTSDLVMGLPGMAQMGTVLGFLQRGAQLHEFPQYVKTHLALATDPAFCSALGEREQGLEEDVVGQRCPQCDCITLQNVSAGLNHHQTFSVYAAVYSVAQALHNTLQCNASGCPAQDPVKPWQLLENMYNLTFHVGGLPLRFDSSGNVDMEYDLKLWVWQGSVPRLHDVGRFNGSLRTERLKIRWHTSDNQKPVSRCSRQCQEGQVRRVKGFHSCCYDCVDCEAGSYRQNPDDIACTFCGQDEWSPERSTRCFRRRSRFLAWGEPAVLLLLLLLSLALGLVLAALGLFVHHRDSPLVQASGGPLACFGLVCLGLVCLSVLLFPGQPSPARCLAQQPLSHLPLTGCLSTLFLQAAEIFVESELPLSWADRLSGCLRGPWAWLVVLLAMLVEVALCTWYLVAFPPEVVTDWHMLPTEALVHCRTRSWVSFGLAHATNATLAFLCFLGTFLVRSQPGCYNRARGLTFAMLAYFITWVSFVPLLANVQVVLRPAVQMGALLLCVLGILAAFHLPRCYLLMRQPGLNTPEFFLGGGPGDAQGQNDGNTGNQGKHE
Test: in vitro cell-based assay, cells expressing the T1R umami taste receptor; enhancement of MSG
Details: MSG enhancement ratio at a particular concentration (concentration not given)
Procedure: Each of Compounds 101-145 was synthesized according to one of the general procedures set forth above in Examples 1 and Example 2. Thereafter, the compounds were tested in an in vitro cell-based assay having cells that express the T1R umami taste receptor. Dose-binding curves were recorded and the EC50 was determined for enhancement of MSG binding. Table 2 sets forth the calculated EC50 values for certain tested compounds as well as the MSG enhancement ratio at a particular concentration.

SMILES	MSG Enh. Ratio
CCC(C)[C@@H](CO)NC(=O)/C=C/c1ccc(OC)cc1 (stereo in doubt) [Compound 115, (E)-N-((2S,3R)-1-hydroxy-3-methylpentan-2-yl)-3-(4-methoxyphenyl)acrylamide]	1.5
CC(C)c1ccc(C(=O)N[C@H](CO)Cc2ccccc2)cc1 [Compound 101, (S)-N-(1-hydroxy-3-phenylpropan-2-yl)-4-isopropylbenzamide]	1.4
CC(C)C[C@@H](CO)NC(=O)c1ccc(C(C)C)cc1 [Compound 102, (S)-N-(1-hydroxy-4-methylpentan-2-yl)-4-isopropylbenzamide]	1.4
CC[C@H](C)[C@@H](CO)NC(=O)c1ccc(C(C)C)cc1 [Compound 103, N-((2S,3S)-1-hydroxy-3-methylpentan-2-yl)-4-isopropylbenzamide]	1.2
Cc1ccc(C(=O)N[C@H](CO)CC(C)C)cc1C [Compound 104, (S)-N-(1-hydroxy-4-methylpentan-2-yl)-3,4-dimethylbenzamide]	2.8
Cc1ccc(C(=O)N[C@H](CO)Cc2ccccc2)cc1C [Compound 105, (S)-N-(1-hydroxy-3-phenylpropan-2-yl)-3,4-dimethylbenzamide]	3.4
CC[C@H](C)[C@@H](CO)NC(=O)c1ccc(C)c(C)c1 [Compound 106, N-((2S,3S)-1-hydroxy-3-methylpentan-2-yl)-3,4-dimethylbenzamide]	2.5
COc1cc(OC)cc(C(=O)N[C@H](CO)Cc2ccccc2)c1 [Compound 107, (S)-N-(1-hydroxy-3-phenylpropan-2-yl)-3,5-dimethoxybenzamide]	1.9
COc1cc(OC)cc(C(=O)N[C@H](CO)CC(C)C)c1 [Compound 108, (S)-N-(1-hydroxy-4-methylpentan-2-yl)-3,5-dimethoxybenzamide]	1.3
CC[C@H](C)[C@@H](CO)NC(=O)c1cc(OC)cc(OC)c1 [Compound 109, N-((2S,3S)-1-hydroxy-3-methylpentan-2-yl)-3,5-dimethoxybenzamide]	1.1
CC[C@H](C)[C@@H](CO)NC(=O)c1ccc2c(c1)OCO2 [Compound 110, N-((2S,3S)-1-hydroxy-3-methylpentan-2-yl) benzo[d][1,3]dioxole-5-carboxamide]	1.4
O=C(N[C@H](CO)Cc1ccccc1)c1ccc2c(c1)OCO2 [Compound 111, (S)-N-(1-hydroxy-3-phenylpropan-2-yl) benzo[d][1,3]dioxole-5-carboxamide]	1.8
CC(C)C[C@@H](CO)NC(=O)c1ccc2c(c1)OCO2 [Compound 112, (S)-N-(1-hydroxy-4-methylpentan-2-yl) benzo[d][1,3]dioxole-5-carboxamide]	2.3
COc1cccc(C(=O)N[C@H](CO)Cc2ccccc2)c1O [Compound 113, (S)-2-hydroxy-N-(1-hydroxy-3-phenylpropan-2-yl)-3-methoxybenzamide]	1.6
COc1ccc(/C=C/C(=O)N[C@H](CO)CC(C)C)cc1 [Compound 114, (S,E)-3-(4-methoxyphenyl)-N-(1-hydroxy-4-methylpentan-2-yl)acrylamide]	1.7
CCOc1ccc(/C=C/C(=O)N[C@H](CO)CC(C)C)cc1 [Compound 117, (S,E)-3-(4-ethoxyphenyl)-N-(1-hydroxy-4-methylpentan-2-yl)acrylamide]	6.8

Same assay, conditions: cells that express the T1R umami taste receptor; dose-binding curves

SMILES	EC50 [µM]
CCC(C)[C@@H](CO)NC(=O)/C=C/c1ccc(OC)cc1 (stereo in doubt) [Compound 115, (E)-N-((2S,3R)-1-hydroxy-3-methylpentan-2-yl)-3-(4-methoxyphenyl)acrylamide]	> 50
CC(C)c1ccc(C(=O)N[C@H](CO)Cc2ccccc2)cc1 [Compound 101, (S)-N-(1-hydroxy-3-phenylpropan-2-yl)-4-isopropylbenzamide]	> 50
CC(C)C[C@@H](CO)NC(=O)c1ccc(C(C)C)cc1 [Compound 102, (S)-N-(1-hydroxy-4-methylpentan-2-yl)-4-isopropylbenzamide]	> 50
CC[C@H](C)[C@@H](CO)NC(=O)c1ccc(C(C)C)cc1 [Compound 103, N-((2S,3S)-1-hydroxy-3-methylpentan-2-yl)-4-isopropylbenzamide]	> 50
Cc1ccc(C(=O)N[C@H](CO)CC(C)C)cc1C [Compound 104, (S)-N-(1-hydroxy-4-methylpentan-2-yl)-3,4-dimethylbenzamide]	> 50
Cc1ccc(C(=O)N[C@H](CO)Cc2ccccc2)cc1C [Compound 105, (S)-N-(1-hydroxy-3-phenylpropan-2-yl)-3,4-dimethylbenzamide]	> 50
CC[C@H](C)[C@@H](CO)NC(=O)c1ccc(C)c(C)c1 [Compound 106, N-((2S,3S)-1-hydroxy-3-methylpentan-2-yl)-3,4-dimethylbenzamide]	> 50
COc1cc(OC)cc(C(=O)N[C@H](CO)Cc2ccccc2)c1 [Compound 107, (S)-N-(1-hydroxy-3-phenylpropan-2-yl)-3,5-dimethoxybenzamide]	> 50
COc1cc(OC)cc(C(=O)N[C@H](CO)CC(C)C)c1 [Compound 108, (S)-N-(1-hydroxy-4-methylpentan-2-yl)-3,5-dimethoxybenzamide]	> 50
CC[C@H](C)[C@@H](CO)NC(=O)c1cc(OC)cc(OC)c1 [Compound 109, N-((2S,3S)-1-hydroxy-3-methylpentan-2-yl)-3,5-dimethoxybenzamide]	> 50
CC[C@H](C)[C@@H](CO)NC(=O)c1ccc2c(c1)OCO2 [Compound 110, N-((2S,3S)-1-hydroxy-3-methylpentan-2-yl) benzo[d][1,3]dioxole-5-carboxamide]	> 50
O=C(N[C@H](CO)Cc1ccccc1)c1ccc2c(c1)OCO2 [Compound 111, (S)-N-(1-hydroxy-3-phenylpropan-2-yl) benzo[d][1,3]dioxole-5-carboxamide]	> 50
CC(C)C[C@@H](CO)NC(=O)c1ccc2c(c1)OCO2 [Compound 112, (S)-N-(1-hydroxy-4-methylpentan-2-yl) benzo[d][1,3]dioxole-5-carboxamide]	> 50
COc1cccc(C(=O)N[C@H](CO)Cc2ccccc2)c1O [Compound 113, (S)-2-hydroxy-N-(1-hydroxy-3-phenylpropan-2-yl)-3-methoxybenzamide]	> 50
COc1ccc(/C=C/C(=O)N[C@H](CO)CC(C)C)cc1 [Compound 114, (S,E)-3-(4-methoxyphenyl)-N-(1-hydroxy-4-methylpentan-2-yl)acrylamide]	> 50
CCOc1ccc(/C=C/C(=O)N[C@H](CO)CC(C)C)cc1 [Compound 117, (S,E)-3-(4-ethoxyphenyl)-N-(1-hydroxy-4-methylpentan-2-yl)acrylamide]	~25
